Measured values reported in US20220105192A1, “COMPOSITION, METHOD AND USE THEREOF” (RYBOQUIN COMPANY LTD, priority 2019, published 2022).

Assays:
ITCH mRNA [1] = assay: ITCH mRNA knockdown by qPCR after LipofectAMINE 2000 transfection, Kelly cells; assay type: cell-based
Description: (§1) Transfection with LipofectAMINE 2000: one day before transfection, cells were plated at 8×10^4 cells per well for 24-well plate or 1.5×10^5 cells per well for 6-well plate in culture medium. On the day of transfection, LipofectAMINE 2000 (Thermal Fisher) or ITCH/Irrelevant siRNA (Eurogentec) was pre-diluted in OptiMEM (Thermal Fisher) with various concentrations and mixed to form complexes at room temperature (RT) for 25 min before adding to cells. mRNAs or protein lysates were collected 72 hours after transfection for further analysis.
(§2) Real-time PCR: cDNA from each mRNA sample was synthesized using superscript III first strand synthesis kit (Thermal Fisher). To determine the ITCH expression, real time PCR was performed using SYBR-green qPCR kit (Eurogentec), using beta-actin or SDHA (sequence details as above) as endogenous control. The qPCR was run using either StepOne plus qPCR machine (Thermal Fisher) or CFX96 qPCR system (Bio-Rad). Results were analysed using their corresponding software.
(§3) To determine ITCH silencing in neuroblastoma cells in vitro, neuroblastoma cells were transfected with ITCH siRNA, using LipofectAMINE 2000 as the transfection reagent. Cells were transfected with either, a) ITCH siRNA (6.25 nM to 100 nM) using 2 μl/well LipofectAMINE 2000 or b) Different amounts of LipofectAMINE2000 (0.5 μl/well, 1 μl/well and 2 μl/well) with 100 nM ITCH siRNA for 4 hours in OptiMEM, and then change into complete medium for a further 72 hours.
(§4) The ITCH mRNA levels were determined by qPCR, and cells transfected with irrelevant siRNA were used as the control.

ITCH mRNA [2] = assay: ITCH mRNA knockdown by qPCR after LipofectAMINE 2000 transfection, BE2 cells; assay type: cell-based
Description: as §1, §2, §3, §4

Itch protein [3] = assay: Western blot of Itch protein after siRNA transfection, Kelly cells; assay type: cell-based
Description: as §1
[…] 100 μl of lysis buffer was added to each well of the 6-well plate, and left on ice for 10 minutes. Samples were collected and boiled for 3 minutes and then centrifuged at 14,000 g for 10 minutes at 4° C. The supernatants were stored at −80° C. until needed. 30 μl/well of each sample were loaded onto NuPAGE Novex 10% bis-Tris Gel, and run at a constant voltage of 150V for 1 hour, before being transferred to a nitrocellulose membrane at 300 mA for 2 hours. The membrane was then blocked with Odyssey block solution (LI-COR Biosciences) for 60 min, incubated by primary antibodies of mouse anti-ITCH antibody (1:2000, BD) or rabbit anti-TP73 (1:1000, Generon), and mouse anti-beta actin (1:5000, Sigma) overnight at 4° C. […]

Itch protein [4] = assay: Western blot of Itch protein after siRNA transfection, BE2 cells; assay type: cell-based; details: 72 hours after transfection, in comparison to irrelevant siRNA treated cells
Description: as §1
Western blot: 72 hours after transfection, protein was extracted in RIPA (Radio-Immunoprecipitation Assay) lysis buffer (Sigma) containing a complete protease inhibitor cocktail (1:100, Roche). 100 μl of lysis buffer was added to each well of the 6-well plate, and left on ice for 10 minutes. Samples were collected and boiled for 3 minutes and then centrifuged at 14,000 g for 10 minutes at 4° C. The supernatants were stored at −80° C. until needed. 30 μl/well of each sample were loaded onto NuPAGE Novex 10% bis-Tris Gel, and run at a constant voltage of 150V for 1 hour, before being transferred to a nitrocellulose membrane at 300 mA for 2 hours. […]

TP73 = assay: Western blot of TP73 after ITCH siRNA transfection, Kelly cells; assay type: cell-based; details: LipofectAMINE2000, samples at 1, 2, 3, 6 days and D6+3, western blot normalized to β-actin
Description: […] 100 μl of lysis buffer was added to each well of the 6-well plate, and left on ice for 10 minutes. Samples were collected and boiled for 3 minutes and then centrifuged at 14,000 g for 10 minutes at 4° C. The supernatants were stored at −80° C. until needed. 30 μl/well of each sample were loaded onto NuPAGE Novex 10% bis-Tris Gel, and run at a constant voltage of 150V for 1 hour, before being transferred to a nitrocellulose membrane at 300 mA for 2 hours. The membrane was then blocked with Odyssey block solution (LI-COR Biosciences) for 60 min, incubated by primary antibodies of mouse anti-ITCH antibody (1:2000, BD) or rabbit anti-TP73 (1:1000, Generon), and mouse anti-beta actin (1:5000, Sigma) overnight at 4° C. After washing with PBS (phosphate-buffered saline) containing 1% Tween 20 (PBST) for 15 min×3 times at room temperature, the membrane was then incubated with IRDye 680 RD goat anti-rabbit and IRDye 800 CW goat anti-mouse 2nd antibodies (1:15000, LI-COR Biosciences) for 1 hour at RT. The image of the blotted membrane was acquired by Odyssey Clx infrared imaging system (LI-COR Biosciences) using image studio software.
Kelly cells were transfected with ITCH siRNA or irrelevant siRNA in 6-well plates using LipofectAMINE2000. The protein samples were collected 1 day, 2 days, 3 days and 6 days after transfection. […]

Kelly cells = assay: SubG1 analysis (apoptosis) of transfected Kelly cells after 4 Gy irradiation; assay type: cell-based; details: 4 Gy irradiation three days after transfection, analysed one day after irradiation
Description: SubG1 analysis: to examine the effects of ITCH silencing on the apoptosis of neuroblastoma cells upon irradiation, Kelly cells were firstly transfected with ITCH siRNA as described above, using irrelevant siRNA as control. Cells were exposed to 4 Gy irradiation three days after transfection. 24 hours after irradiation, cells were trypsinized and centrifuged at 2000 rpm, for 5 min. Pre-cold 70% ethanol was then added dropwise to cell pellet, and the cells were fixed at 4° C. for 30 min before centrifuge again and the cell pellet washed with citric buffer twice before adding 50 μl RNase followed by 50 μg/ml PI (propidium iodide) for 5 min. The cells were then pelleted again at 2000 rpm for 5 min, and re-suspended in 0.5 ml PBS for FACS (fluorescent associated cell sorting) analysis. The cell cycle profile was acquired using FACS calibur machine and the percentage of cells in the SubG1 region was calculated using Flowjo software.
Kelly cells were transfected with ITCH and irrelevant siRNA, respectively. Three days later, cells were subjected to 4 Gy irradiation. The subG1 population was analysed one day after the irradiation. […] This difference was statistically significant between the 2 groups (p<0.001, Mann-Whitney test).

ITCH mRNA [5] = assay: In vivo silencing of ITCH in neuroblastoma (Kelly) xenograft tumours, real time RT-PCR; set-up: species or system mouse; details: for Differences in % (ITCH SiRNA vs Irre SiRNA), relative ITCH expression <0.8 / Differences in % (ITCH SiRNA vs Irre SiRNA), relative ITCH expression <1 / % of samples with relative ITCH expression <0.8 / % of samples with relative ITCH expression <1 / Number of samples with relative ITCH expression <0.8 / Number of samples with relative ITCH expression <1: 24 h after injection; for % of samples with relative ITCH expression <0.8 / % of samples with relative ITCH expression <1 / Number of samples with relative ITCH expression <0.8 / Number of samples with relative ITCH expression <1: n number 24; for more samples expressing lower level of ITCH (relative expression <0.8) in treated group than in control group: 48 h after delivery; for ITCH silencing: 48 hours after delivery, vs irrelevant siRNA group; for Relative expression of ITCH/SDHA (mean ± SEM) / Relative expression of ITCH/β-actin (mean ± SEM): xenograft tumours
Description: Establishment of the xenograft neuroblastoma model and in vivo transfection of ITCH siRNA with nanoparticles: 6-8 week old NSG-SCID female mice were ordered from Charles River laboratories. All procedures were approved by UCL animal care policies and were carried out under Home Office Licenses issued in accordance with the United Kingdom Animals (Scientific Procedures) Act 1986 (UK). The mice were acclimatized for 1-2 weeks before engrafting the neuroblastoma cells. On the day of injection, Kelly cells were trypsinized and re-suspended in medium at a density of 3×10^6 cells/100 μl. 100 μl cell suspension was mixed with equal volume of Matrigel (BD biosciences) on ice and immediately injected subcutaneously into the left or right upper thigh of the mouse. The body weight and the tumour size/volume of each mouse were monitored from D4 after engraftment. The in vivo administration of the ITCH siRNA nanoparticles was performed on mouse once its tumour grew bigger than 5mm at both dimensions. The nanoparticle formulation for in vivo study was also prepared at the 1:4:1 ratio, using cationic lipid AT-1, which contains 1% PEG and the peptide used was ME27. 1 mg siRNA/kg of nanoparticles was injected intravenously into each mouse. The tumour was harvested either 24 hours or 48 hours after administration, and processed for qPCR analysis.
Real time RT-PCR analysis of tumour samples: each tumour was divided into 4 parts and mRNA was extracted respectively for real time RT-PCR analysis. iTaq Universal SYBR Green One-Step Kit was used in this assay. For normalization, 2 separate housekeeping genes, beta-actin and SDHA (Fisher M, 2005) were included. As there were in total 104 samples to test, it was not possible to fit all samples in a single 96 well testing plate. Therefore, sample 05 c was chosen, from an untreated tumour sample as a common control. This sample was included in every plate that was run and all the data from each plate were calculated relative to this sample (the ddCT value of each sample was calculated by subtracting the deICT value of sample 05 c).

[6] = 6.25 nM siRNA, 2 μl/well LipofectAMINE 2000, qPCR, control irrelevant siRNA
[7] = 12.5 nM siRNA, 2 μl/well LipofectAMINE 2000, qPCR, control irrelevant siRNA
[8] = 25 nM siRNA, 2 μl/well LipofectAMINE 2000, qPCR, control irrelevant siRNA
[9] = 50 nM siRNA, 2 μl/well LipofectAMINE 2000, qPCR, control irrelevant siRNA
[10] = 100 nM siRNA, 2 μl/well LipofectAMINE 2000, qPCR, control irrelevant siRNA
[11] = 24 hours after i.v. 1 mg siRNA/kg nanoparticles (AT-1, ME27)
[12] = 48 hours after i.v. 1 mg siRNA/kg nanoparticles (AT-1, ME27)

## ITCH siRNA: siRNA, sense strand 5′-GCUGUUGUUUGCCAUAGAA55-3′ (SEQ ID NO 003), antisense strand 5′-UUCUAUGGCAAACAACAGC55-3′ (SEQ ID NO 004) (Eurogentec) (listed as RNA, chemistry not given here)
ITCH mRNA [1]; [6]
  ITCH knockdown: 64.7%
ITCH mRNA [1]; [7]
  ITCH knockdown: 77.8%
ITCH mRNA [1]; [8]
  ITCH knockdown: 73.5%
ITCH mRNA [1]; [9]
  ITCH knockdown: 89%
ITCH mRNA [1]; 100nM SiRNA, 0.5 μl/well LipofectAMINE 2000
  ITCH knockdown: 85%
ITCH mRNA [1]; 100nM SiRNA, 1 μl/well LipofectAMINE 2000
  ITCH knockdown: 83%
ITCH mRNA [1]; 100nM SiRNA, 2 μl/well LipofectAMINE 2000 (LipofectAMINE amount series)
  ITCH knockdown: 78.8%
ITCH mRNA [1]; [10]
  ITCH knockdown: 78%
ITCH mRNA [2]; [6]
  ITCH knockdown: -39%
ITCH mRNA [2]; [7]
  ITCH knockdown: 54%
ITCH mRNA [2]; [8]
  ITCH knockdown: 48.7%
ITCH mRNA [2]; [9]
  ITCH knockdown: 71.8%
ITCH mRNA [2]; 100 nM siRNA, 0.5 μl/well LipofectAMINE 2000
  ITCH knockdown: 88.7%
ITCH mRNA [2]; 100 nM siRNA, 1 μl/well LipofectAMINE 2000
  ITCH knockdown: 49%
ITCH mRNA [2]; 100 nM siRNA, 2 μl/well LipofectAMINE 2000 (LipofectAMINE amount series)
  ITCH knockdown: 34%
ITCH mRNA [2]; [10]
  ITCH knockdown: 38.2%
Itch protein [3]; 72 hours after transfection, western blot, in comparison to non-transfected cells
  remaining Itch protein level: 31.6%
Itch protein [3]; LipofectAMINE2000, 1 day to 6 days after the 1st transfection, vs irrelevant siRNA, normalized to β-actin
  Itch protein level, time course: downregulation of Itch protein was observed
Itch protein [4]
  changes in Itch protein level: no changes
TP73
  TP73 protein level, time course: upregulation was only detected at day 3 samples and day 6 samples which had been transfected twice
Kelly cells
  percentage of SubG1 (apoptotic) cells: 8.36%
ITCH mRNA [5]; normalized to SDHA
  Differences in % (ITCH SiRNA vs Irre SiRNA), relative ITCH expression <0.8: 12.5%
  Differences in % (ITCH SiRNA vs Irre SiRNA), relative ITCH expression <1: 4.17%
  % of samples with relative ITCH expression <0.8: 25%
  % of samples with relative ITCH expression <1: 41.67%
  Number of samples with relative ITCH expression <0.8: 6
  Number of samples with relative ITCH expression <1: 10
  more samples expressing lower level of ITCH (relative expression <0.8) in treated group than in control group: 35%
  ITCH silencing: 14.6%
ITCH mRNA [5]; normalized to β-actin
  Differences in % (ITCH SiRNA vs Irre SiRNA), relative ITCH expression <0.8: −16.67%
  Differences in % (ITCH SiRNA vs Irre SiRNA), relative ITCH expression <1: 8.33%
  % of samples with relative ITCH expression <0.8: 16.67%
  % of samples with relative ITCH expression <1: 45.83%
  Number of samples with relative ITCH expression <0.8: 4
  Number of samples with relative ITCH expression <1: 11
  more samples expressing lower level of ITCH (relative expression <0.8) in treated group than in control group: 27.14%
  ITCH silencing: 19.15%
ITCH mRNA [5]; neuroblastoma xenograft model, nanoparticles, 48 hours after transfection
  ITCH silencing (summary): 15-20%
ITCH mRNA [5]; [11]
  Relative expression of ITCH/SDHA (mean ± SEM): 1.18 ± 0.10
  Relative expression of ITCH/β-actin (mean ± SEM): 1.05 ± 0.06
ITCH mRNA [5]; [12]
  Relative expression of ITCH/SDHA (mean ± SEM): 0.82 ± 0.05
  Relative expression of ITCH/β-actin (mean ± SEM): 0.76 ± 0.05
